Consider one compound from patent US20210301349A1, “COMPOSITIONS AND METHODS FOR TREATING A TUMOR SUPPRESSOR DEFICIENT CANCER” (BETH ISRAEL DEACONESS MEDICAL CENTER, INC., priority 2016, published 2021).

“And” between values parts separate entries of the source, which are not always exact repeats. Identical values can stand only once. “Also recorded” adds a separate entry of the source.

Assay type in all cases: in vivo, mouse
Test [1] has as its system Pten^pc−/−; Pml^pc−/− prostate tumors. Kind of test: Tumor growth by MRI in Pten^pc−/−; Pml^pc−/− mice under CXCR2 antagonist treatment. The note with it: for tumor volume: Pten-Pml, individual mice; for tumor growth: Pten^pc−/−, Pml^pc−/− mice, versus vehicle. As to the method:
(§1) Mice were allocated at random to experimental groups and studies were performed in an unblended manner. For treatment with the CXCR2 antagonist, SB225002 (Cayman Chemical #13336) was dissolved in DMSO (10 mg/ml) and diluted in vehicle (0.9% NaCl, 0.3% Tween 80) for in vivo administration. Mice (4 months of age) were treated daily for 10 days by intraperitoneal injection (5 mg/kg) and prostate tumor tissue (anterior lobes) was subjected to Flow Cytometry and histological analysis. For MRI analysis, mice (4 months of age) were treated daily for 21 days (Pten^pc−/−; Zbtb7a^pc−/−), for 14 days (Pten^pc−/−; Trp53^pc−/−) or for 14 days (Pten^pc−/−; Pml^pc−/−) by intraperitoneal injection (5 mg/kg). For depletion of Gr-1+/CD11b+ cells, Ly6G-depletion antibody (1A8, BioXcell) and control Rat IgG2a antibody (BioXcell) were diluted in phosphate-buffered saline (PBS) for in vivo administration. Mice (4 months of age) were treated every other day for 10 days by intraperitoneal injection (200-300 μg/mouse). InVivoMAb anti-mouse Ly6G/Ly6C (Gr-1) antibody, clone RB6-8C5 (BE0075, BioXcell), and control Rat IgG2b antibody (BE0090, BioXcell) were diluted in PBS and Pten^pc−/−; Trp53^pc−/− mice were treated every other day for 14 days by intraperitoneal injection (200 μg/mouse). For neutralization of CXCL5, anti-Mouse CXCL5 antibody (Leinco Technologies) and control Rat IgG2a antibody (BioXcell) were diluted in PBS and injected every other day for 21 days by intraperitoneal injection (20 μg/mouse). Tumor volume quantification was performed by using VivoQuant and Image J software. All mouse prostate MRI imaging analysis was performed at Small Animal Imaging Core at BIDMC and acquired on an ASPECT Model M2 1T tabletop scanner.

The test system of test [2] is Pten^pc−/−; Zbtb7a^pc−/− prostate tumors. Kind of test: Tumor growth by MRI in Pten^pc−/−; Zbtb7a^pc−/− mice under drug or antibody treatment. The note with it: for tumor volume: Pten-Zbtb7a, individual mice. As to the method: as §1
In test [3] the test system is Pten^pc−/−; Trp53^pc−/− prostate tumors. Kind of test: Flow cytometry of immune infiltrate in treated Pten^pc−/−; Trp53^pc−/− prostate tumors. Particulars: Trp53^pc−/− prostate tumors after treatment. The protocol: Mice were allocated at random to experimental groups and studies were performed in an unblended manner. For treatment with the CXCR2 antagonist, SB225002 (Cayman Chemical #13336) was dissolved in DMSO (10 mg/ml) and diluted in vehicle (0.9% NaCl, 0.3% Tween 80) for in vivo administration. Mice (4 months of age) were treated daily for 10 days by intraperitoneal injection (5 mg/kg) and prostate tumor tissue (anterior lobes) was subjected to Flow Cytometry and histological analysis. For MRI analysis, mice (4 months of age) were treated daily for 21 days (Pten^pc−/−; Zbtb7a^pc−/−), for 14 days (Pten^pc−/−; Trp53^pc−/−) or for 14 days (Pten^pc−/−; Pml^pc−/−) by intraperitoneal injection (5 mg/kg). For depletion of Gr-1+/CD11b+ cells, Ly6G-depletion antibody (1A8, BioXcell) and control Rat IgG2a antibody (BioXcell) were diluted in phosphate-buffered saline (PBS) for in vivo administration. Mice (4 months of age) were treated every other day for 10 days by intraperitoneal injection (200-300 μg/mouse). […] Tumor volume quantification was performed by using VivoQuant and Image J software. […]
For Flow Cytometry, spleen and lymph node single cell suspensions were prepared by mashing the tissue in 2% FBS/PBS. […] All staining mixtures were analyzed on a BD LSR II flow cytometer (Becton Dickinson). Resulting profiles were further processed and analyzed using the FlowJo 8.7 software.

Where [4] appears, read: CXCR2i (SB225002 5 mg/kg i.p. daily), row 0 = day 0 baseline, MRI.

As for `O=C(Nc1ccc([N+](=O)[O-])cc1O)Nc1ccccc1Br` [SB225002], the tumor volume in test [1] (setting [4]) was 45.996 mm3 and 37.426 mm3; in test [1] (CXCR2i, row 1 (weekly MRI)) it was 53.662 mm3 and 43.164 mm3; in test [1] (CXCR2i, row 2 (weekly MRI, 2 weeks on treatment)), 56.567 mm3 and 45.972 mm3; in test [2] (setting [4]) it was 54.248 mm3 and 79.3701 mm3 and 59.2774 mm3; in test [2] (CXCR2i, row 1 (weekly MRI)), 44.3115 mm3 and 67.9688 mm3 and 65.0879 mm3; in test [2] (CXCR2i, row 2 (weekly MRI)) it was 41.1865 mm3 and 68.9697 mm3 and 58.6914 mm3. Besides, the tumor volume in test [2] (CXCR2i, row 3 (weekly MRI, 3 weeks on treatment)) was 42.1142 mm3 and 71.3379 mm3 and 66.0889 mm3. In addition, the tumor growth entry in test [1] was “did not show any significant response”; in test [1] (listed as CXCR2i), “did not respond”; in test [2] (Pten^pc−/−, Zbtb7a^pc−/− mice, versus vehicle or control IgG), “significantly suppressed the tumor growth; also recorded: significant inhibition of tumor growth”. Moreover, the “Treg cells (Foxp3+)” value in test [3] is reported as “less Foxp3+ cells; also recorded: less Treg cells”. In test [3], the “intra-tumoral Gr-1+/CD11b+ cells” value is reported as “decrease of Gr-1+/CD11b+ cells”.
